SMILES strings stand for the structures. Calls of active or inactive are those of the source.

The target in test [1] is T1, Nuclear receptor subfamily 0 group B member 1 (Homo sapiens, UniProt P51843).
T1 sequence (P51843 whole entry): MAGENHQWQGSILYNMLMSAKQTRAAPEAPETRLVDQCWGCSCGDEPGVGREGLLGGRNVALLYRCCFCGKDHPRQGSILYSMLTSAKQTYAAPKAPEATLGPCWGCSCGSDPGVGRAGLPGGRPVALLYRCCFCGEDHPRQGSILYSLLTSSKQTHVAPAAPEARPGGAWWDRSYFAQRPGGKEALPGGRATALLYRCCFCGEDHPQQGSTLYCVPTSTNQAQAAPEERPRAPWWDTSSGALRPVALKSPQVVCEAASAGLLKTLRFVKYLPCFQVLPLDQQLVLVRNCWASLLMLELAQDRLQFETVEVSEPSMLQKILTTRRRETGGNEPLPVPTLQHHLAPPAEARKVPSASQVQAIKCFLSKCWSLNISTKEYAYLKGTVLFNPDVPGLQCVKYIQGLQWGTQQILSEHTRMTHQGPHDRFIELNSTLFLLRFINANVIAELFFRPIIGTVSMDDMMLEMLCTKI
Put plainly: Luminescence-based cell-based high throughput dose response assay for inhibitors of the orphan nuclear receptor subfamily 0, group B, member 1 (DAX1; NR0B1). [Related pubchem assays (depositor defined):AID504766, AID504790]. The class given is functional.

The test system of a further test is HEK293. Put plainly: cells. Format: functional, cell-based. The settings on record: Homo sapiens.
The subject of another test is Vero. Nature of the test: Vero cell cytotoxicity, cytotoxicity control for flavivirus capping enzyme inhibitors (AID 588742). Format: functional. The settings on record: Chlorocebus sabaeus.
The next test has as its system Escherichia coli. Put plainly: microbe, parasite or virus in culture.
Test [2] addresses 5-hydroxytryptamine receptor 5A (Homo sapiens, UniProt P47898). Put plainly: Counterscreen for agonists of OPRM1-OPRD1 heterodimerization: luminescence-based cell-based high throughput dose response assay to identify agonists of 5-hydroxytryptamine (serotonin) 5A receptor (HTR5A). [Related pubchem assays (depositor defined):AID504326, AID504355, AID504692, AID504904, AID504905]. Format: functional. Background: Counterscreens check selectivity or assay interference.

Test [3] concerns the target Delta-type opioid receptor (Homo sapiens, UniProt P41143). Put plainly: Counterscreen for agonists of heterodimerization of the mu 1 (OPRM1) and delta 1 (OPRD1) opioid receptors: Luminescence-based cell-based high throughput dose response assay to identify agonists of OPRD1 homodimerization. [Related pubchem assays (depositor defined):AID504326, AID504355, AID504692, AID504904, AID504905]. Format: functional.

Test [4] has as its target T2, Short transient receptor potential channel 4 (Mus musculus, UniProt Q9QUQ5).
T2 sequence (Q9QUQ5 whole entry): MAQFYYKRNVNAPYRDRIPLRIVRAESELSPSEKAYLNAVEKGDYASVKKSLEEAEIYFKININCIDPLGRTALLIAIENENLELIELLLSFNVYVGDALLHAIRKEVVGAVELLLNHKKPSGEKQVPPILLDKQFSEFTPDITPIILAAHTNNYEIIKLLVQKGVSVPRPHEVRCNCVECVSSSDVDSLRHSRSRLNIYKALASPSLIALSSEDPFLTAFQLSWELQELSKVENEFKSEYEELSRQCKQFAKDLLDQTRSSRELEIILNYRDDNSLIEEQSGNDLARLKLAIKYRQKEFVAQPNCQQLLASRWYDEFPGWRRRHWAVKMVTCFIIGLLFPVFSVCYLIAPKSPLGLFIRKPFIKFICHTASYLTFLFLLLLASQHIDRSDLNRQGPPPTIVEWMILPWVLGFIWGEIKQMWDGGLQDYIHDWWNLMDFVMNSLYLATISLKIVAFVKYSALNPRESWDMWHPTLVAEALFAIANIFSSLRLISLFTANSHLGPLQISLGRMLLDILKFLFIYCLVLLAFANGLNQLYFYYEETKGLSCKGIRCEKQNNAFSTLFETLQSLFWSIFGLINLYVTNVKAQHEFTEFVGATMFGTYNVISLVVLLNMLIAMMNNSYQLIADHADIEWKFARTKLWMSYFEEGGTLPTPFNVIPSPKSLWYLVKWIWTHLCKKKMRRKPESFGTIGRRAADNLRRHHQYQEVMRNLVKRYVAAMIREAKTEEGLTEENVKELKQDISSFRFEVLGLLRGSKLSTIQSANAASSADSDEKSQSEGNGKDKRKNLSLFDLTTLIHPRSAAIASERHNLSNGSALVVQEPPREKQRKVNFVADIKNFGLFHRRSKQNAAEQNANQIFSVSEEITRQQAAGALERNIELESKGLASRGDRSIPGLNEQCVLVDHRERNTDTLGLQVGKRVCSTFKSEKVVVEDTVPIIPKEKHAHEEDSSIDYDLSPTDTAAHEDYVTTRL
Nature of the test: mouse TRPC4 channel inhibitors, dose response, cell-based, HEK293 TRPC4/mu-opioid, Fluo-4 calcium (AID 434942).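 Note: potency of inhibitors blocking the TRPC4 calcium response.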 Format: functional.

The next test addresses Mu-type opioid receptor (Homo sapiens, UniProt P35372). Put plainly: Counterscreen for agonists of heterodimerization of the mu 1 (OPRM1) and delta 1 (OPRD1) opioid receptors: Luminescence-based cell-based high throughput dose response assay to identify agonists of OPRM1 homodimerization. The class given is functional.
For the next test, the target named is Phospholipase A2 (Homo sapiens, UniProt P04054). The class given is functional.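 Note: confirmatory dose-response counterscreen on phospholipase A2, testing hits that came from an ultra-high-throughput screen for ATG4B inhibitors.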
For the next test, the target named is Cysteine protease ATG4B (Homo sapiens, UniProt Q9Y4P1). Format: functional.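 Note: Fluorescence-based dose-response confirmation assay measuring inhibition of ATG4B activity.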
A further test concerns the target T3, Hexokinase HKDC1 (Homo sapiens, UniProt Q2TB90).
T3 sequence (Q2TB90 whole entry): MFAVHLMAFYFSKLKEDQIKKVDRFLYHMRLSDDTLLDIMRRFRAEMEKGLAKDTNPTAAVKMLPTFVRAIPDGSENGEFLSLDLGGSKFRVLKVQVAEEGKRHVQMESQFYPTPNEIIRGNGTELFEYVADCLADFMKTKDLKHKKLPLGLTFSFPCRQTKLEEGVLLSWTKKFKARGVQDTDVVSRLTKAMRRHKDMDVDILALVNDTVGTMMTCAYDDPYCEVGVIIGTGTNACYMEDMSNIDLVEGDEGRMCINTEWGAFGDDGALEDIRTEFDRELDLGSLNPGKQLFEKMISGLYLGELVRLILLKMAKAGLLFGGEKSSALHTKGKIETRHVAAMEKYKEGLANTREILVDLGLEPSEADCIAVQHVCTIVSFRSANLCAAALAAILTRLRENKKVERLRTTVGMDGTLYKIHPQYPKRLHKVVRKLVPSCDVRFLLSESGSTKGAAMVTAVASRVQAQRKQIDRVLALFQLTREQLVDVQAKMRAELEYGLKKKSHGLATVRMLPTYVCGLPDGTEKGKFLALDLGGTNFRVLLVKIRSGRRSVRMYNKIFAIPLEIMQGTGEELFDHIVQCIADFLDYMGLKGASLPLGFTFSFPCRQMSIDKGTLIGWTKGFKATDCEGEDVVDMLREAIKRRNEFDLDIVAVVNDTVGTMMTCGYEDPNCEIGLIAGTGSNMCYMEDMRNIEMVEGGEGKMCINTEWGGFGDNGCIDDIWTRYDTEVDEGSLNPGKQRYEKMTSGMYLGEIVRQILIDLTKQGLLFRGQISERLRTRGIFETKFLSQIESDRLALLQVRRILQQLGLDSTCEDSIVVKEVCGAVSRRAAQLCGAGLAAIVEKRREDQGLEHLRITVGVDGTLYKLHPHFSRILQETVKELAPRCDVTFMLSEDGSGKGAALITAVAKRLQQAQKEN
Nature of the test: HKDC1 hexokinase inhibitors, SAR follow-up, biochemical, set 2 (AID 588355). Format: functional.

For the next test, the target named is T4, Hexokinase-1 (Homo sapiens, UniProt P19367).
T4 sequence (P19367 whole entry): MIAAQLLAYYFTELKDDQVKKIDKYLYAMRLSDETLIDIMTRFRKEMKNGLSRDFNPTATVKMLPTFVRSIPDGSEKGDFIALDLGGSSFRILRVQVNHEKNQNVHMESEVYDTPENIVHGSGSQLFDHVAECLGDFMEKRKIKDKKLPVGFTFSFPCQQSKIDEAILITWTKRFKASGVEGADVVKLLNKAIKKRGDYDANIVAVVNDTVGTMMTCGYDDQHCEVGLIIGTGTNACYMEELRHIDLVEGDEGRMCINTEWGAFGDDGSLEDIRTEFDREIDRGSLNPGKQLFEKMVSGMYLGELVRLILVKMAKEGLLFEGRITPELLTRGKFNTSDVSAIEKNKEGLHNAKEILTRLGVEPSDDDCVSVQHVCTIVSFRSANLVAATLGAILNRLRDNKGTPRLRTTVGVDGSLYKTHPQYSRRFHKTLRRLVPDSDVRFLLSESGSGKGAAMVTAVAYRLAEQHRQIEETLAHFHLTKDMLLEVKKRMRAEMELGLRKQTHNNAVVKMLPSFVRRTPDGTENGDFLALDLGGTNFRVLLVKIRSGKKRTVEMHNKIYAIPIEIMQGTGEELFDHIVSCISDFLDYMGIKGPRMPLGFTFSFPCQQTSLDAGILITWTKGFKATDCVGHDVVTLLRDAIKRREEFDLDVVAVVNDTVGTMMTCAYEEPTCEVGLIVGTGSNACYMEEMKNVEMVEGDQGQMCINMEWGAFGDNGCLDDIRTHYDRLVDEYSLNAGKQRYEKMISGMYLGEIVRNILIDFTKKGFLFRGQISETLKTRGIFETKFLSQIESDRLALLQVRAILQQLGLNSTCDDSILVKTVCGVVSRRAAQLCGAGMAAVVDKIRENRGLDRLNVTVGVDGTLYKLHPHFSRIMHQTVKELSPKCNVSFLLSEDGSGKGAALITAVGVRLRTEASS
Nature of the test: HK1 enzyme inhibition by HKDC1 hits, SAR follow-up, selectivity assay for HKDC1 inhibitor project, biochemical, set 2, resazurin fluorescence coupled readout (AID 588356). Format: functional. In general terms: Resazurin is reduced to fluorescent resorufin, in cell work by metabolically active cells.

For test [5], the target named is Beta-2 adrenergic receptor (Homo sapiens, UniProt P07550). Put plainly: beta2AR agonists driving receptor internalization, dose response, cell-based, FAP fluorogen, flow cytometry, cherry pick 1 (AID 588763). The class given is functional. On the technique in general: A flow cytometer gives signals particle by particle.
Test [6] concerns the target Casein kinase I isoform delta (Homo sapiens, UniProt P48730). The class given is functional.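 Note: measured as one member (CSNK1D) of a kinome panel.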
Test [7] addresses Melanin-concentrating hormone receptor 1 (Homo sapiens, UniProt Q99705). Nature of the test: Late-stage fluorescence-based counterscreen for antagonists of the G-protein coupled receptor 7 (GPR7): cell-based dose response assay to identify antagonists of the melanin-concentrating hormone receptor 1 (MCHR1) Set 5. The class given is functional.
Test [8] has as its target Neuropeptides B/W receptor type 1 (Homo sapiens, UniProt P48145). Nature of the test: GPR7 antagonist potency, late-stage follow-up, cell-based, fluorescence, dose response, set 5 (AID 588566). Format: functional.
A short description of test [9]: growth suppression of beta-catenin-knockout colon cells, dose response, cell-based, HCT116, human colon tumor (AID 1045).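 Note: HCT116 colon tumor cells with beta catenin knocked out; cells exposed to compound for 60 hours.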 The class given is functional.
Test [10] is described as follows: growth suppression of PTEN-null colon cells, dose response, cell-based, HCT116 PTEN knockout (AID 1047).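 Note: HCT116 colon tumor cells with PTEN knocked out; cells exposed to compound for 60 hours before readout; potency for loss of cell viability measured by luminescence.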 Format: functional.
Test [11] addresses Mitogen-activated protein kinase 13 (Homo sapiens, UniProt O15264). Format: functional.
Test [12] addresses Voltage-gated inwardly rectifying potassium channel KCNH2 (Homo sapiens, UniProt Q12809). The settings on record: Potency.

Sequence of Beta-2 adrenergic receptor (P07550 whole entry, canonical isoform): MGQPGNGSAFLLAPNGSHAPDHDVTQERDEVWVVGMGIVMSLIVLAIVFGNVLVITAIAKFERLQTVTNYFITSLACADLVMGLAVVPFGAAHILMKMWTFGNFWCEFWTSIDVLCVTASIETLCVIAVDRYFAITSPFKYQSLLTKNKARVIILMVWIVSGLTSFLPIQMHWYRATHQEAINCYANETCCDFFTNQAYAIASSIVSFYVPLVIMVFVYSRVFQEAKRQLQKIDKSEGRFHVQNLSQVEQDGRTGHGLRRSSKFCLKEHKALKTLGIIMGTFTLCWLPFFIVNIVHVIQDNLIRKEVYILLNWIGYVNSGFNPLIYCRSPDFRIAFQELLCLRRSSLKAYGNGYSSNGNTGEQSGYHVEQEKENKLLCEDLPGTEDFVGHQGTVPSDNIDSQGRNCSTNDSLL
Sequence of Neuropeptides B/W receptor type 1 (P48145 whole entry): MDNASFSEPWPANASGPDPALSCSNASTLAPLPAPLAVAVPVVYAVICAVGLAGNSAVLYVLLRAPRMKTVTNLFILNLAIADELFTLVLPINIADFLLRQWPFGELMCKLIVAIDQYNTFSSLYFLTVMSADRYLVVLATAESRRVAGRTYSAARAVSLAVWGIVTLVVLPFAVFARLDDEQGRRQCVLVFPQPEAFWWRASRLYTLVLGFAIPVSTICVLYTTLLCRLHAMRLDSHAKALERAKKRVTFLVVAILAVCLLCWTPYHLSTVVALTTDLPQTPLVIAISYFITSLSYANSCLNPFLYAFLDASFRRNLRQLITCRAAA
Sequence of Melanin-concentrating hormone receptor 1 (Q99705 whole entry): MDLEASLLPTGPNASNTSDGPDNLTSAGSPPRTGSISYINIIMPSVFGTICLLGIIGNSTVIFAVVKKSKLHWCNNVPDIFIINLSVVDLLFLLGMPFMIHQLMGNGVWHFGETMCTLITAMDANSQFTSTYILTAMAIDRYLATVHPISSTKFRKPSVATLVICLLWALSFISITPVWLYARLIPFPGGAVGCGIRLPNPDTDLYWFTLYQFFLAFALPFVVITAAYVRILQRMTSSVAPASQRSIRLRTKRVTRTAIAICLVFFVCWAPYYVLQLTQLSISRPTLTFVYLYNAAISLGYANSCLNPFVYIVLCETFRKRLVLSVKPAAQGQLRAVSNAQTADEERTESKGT
Sequence of Casein kinase I isoform delta (P48730 whole entry, canonical isoform): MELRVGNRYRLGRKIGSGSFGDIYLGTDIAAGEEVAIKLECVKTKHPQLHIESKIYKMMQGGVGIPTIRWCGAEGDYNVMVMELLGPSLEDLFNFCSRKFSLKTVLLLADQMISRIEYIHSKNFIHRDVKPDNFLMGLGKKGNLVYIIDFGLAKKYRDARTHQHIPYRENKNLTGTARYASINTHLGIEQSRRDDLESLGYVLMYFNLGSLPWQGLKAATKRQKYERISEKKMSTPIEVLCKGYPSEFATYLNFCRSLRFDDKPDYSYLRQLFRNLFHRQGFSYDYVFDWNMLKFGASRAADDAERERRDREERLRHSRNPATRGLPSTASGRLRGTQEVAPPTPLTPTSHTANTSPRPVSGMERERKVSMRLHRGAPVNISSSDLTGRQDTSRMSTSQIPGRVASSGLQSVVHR
Sequence of Mu-type opioid receptor (P35372 whole entry): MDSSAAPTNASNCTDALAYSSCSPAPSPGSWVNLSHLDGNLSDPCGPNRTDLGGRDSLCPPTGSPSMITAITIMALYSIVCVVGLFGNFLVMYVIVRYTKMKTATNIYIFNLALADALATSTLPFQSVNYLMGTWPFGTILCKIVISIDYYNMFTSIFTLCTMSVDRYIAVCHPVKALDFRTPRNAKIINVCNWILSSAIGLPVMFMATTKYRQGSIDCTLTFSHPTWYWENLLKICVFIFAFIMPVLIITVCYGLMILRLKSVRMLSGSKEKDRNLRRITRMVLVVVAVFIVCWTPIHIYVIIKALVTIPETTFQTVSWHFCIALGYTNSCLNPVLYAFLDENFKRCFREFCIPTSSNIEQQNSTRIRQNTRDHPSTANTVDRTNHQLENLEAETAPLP
Sequence of Delta-type opioid receptor (P41143 whole entry): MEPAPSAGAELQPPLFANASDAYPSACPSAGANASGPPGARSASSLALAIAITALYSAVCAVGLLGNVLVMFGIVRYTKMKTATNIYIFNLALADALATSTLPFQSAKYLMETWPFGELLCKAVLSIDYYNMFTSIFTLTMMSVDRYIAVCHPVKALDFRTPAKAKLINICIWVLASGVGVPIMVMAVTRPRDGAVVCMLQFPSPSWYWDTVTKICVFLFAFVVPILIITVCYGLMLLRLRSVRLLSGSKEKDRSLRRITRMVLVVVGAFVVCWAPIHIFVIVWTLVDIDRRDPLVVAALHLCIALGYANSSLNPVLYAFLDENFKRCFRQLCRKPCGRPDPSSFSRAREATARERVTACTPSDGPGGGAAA
Sequence of Phospholipase A2 (P04054 whole entry): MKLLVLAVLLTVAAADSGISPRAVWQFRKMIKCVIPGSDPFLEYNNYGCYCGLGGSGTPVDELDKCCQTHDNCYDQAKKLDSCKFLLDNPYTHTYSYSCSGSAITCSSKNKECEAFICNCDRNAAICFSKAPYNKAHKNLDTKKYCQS
Sequence of Cysteine protease ATG4B (Q9Y4P1 whole entry): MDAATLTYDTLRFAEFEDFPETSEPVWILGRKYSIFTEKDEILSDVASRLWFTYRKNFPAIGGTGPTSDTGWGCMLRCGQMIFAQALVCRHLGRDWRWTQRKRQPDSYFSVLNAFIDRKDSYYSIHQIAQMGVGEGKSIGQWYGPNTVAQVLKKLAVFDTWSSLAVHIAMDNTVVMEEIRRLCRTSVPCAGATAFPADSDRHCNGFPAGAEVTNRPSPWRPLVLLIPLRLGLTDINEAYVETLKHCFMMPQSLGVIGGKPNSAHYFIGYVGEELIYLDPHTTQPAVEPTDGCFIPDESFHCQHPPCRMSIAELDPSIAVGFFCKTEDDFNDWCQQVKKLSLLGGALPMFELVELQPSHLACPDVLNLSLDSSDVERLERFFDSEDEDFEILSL
Sequence of 5-hydroxytryptamine receptor 5A (P47898 whole entry): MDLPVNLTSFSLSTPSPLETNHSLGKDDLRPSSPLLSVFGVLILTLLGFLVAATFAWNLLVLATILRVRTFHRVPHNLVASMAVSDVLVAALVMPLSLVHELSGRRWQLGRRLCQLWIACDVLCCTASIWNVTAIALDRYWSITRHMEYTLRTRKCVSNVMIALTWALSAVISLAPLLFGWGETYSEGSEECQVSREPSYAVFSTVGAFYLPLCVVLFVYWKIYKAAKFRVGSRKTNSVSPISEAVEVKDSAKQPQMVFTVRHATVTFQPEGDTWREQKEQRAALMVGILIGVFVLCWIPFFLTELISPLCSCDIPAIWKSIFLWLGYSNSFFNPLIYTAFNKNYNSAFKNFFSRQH
Sequence of Voltage-gated inwardly rectifying potassium channel KCNH2 (Q12809 whole entry): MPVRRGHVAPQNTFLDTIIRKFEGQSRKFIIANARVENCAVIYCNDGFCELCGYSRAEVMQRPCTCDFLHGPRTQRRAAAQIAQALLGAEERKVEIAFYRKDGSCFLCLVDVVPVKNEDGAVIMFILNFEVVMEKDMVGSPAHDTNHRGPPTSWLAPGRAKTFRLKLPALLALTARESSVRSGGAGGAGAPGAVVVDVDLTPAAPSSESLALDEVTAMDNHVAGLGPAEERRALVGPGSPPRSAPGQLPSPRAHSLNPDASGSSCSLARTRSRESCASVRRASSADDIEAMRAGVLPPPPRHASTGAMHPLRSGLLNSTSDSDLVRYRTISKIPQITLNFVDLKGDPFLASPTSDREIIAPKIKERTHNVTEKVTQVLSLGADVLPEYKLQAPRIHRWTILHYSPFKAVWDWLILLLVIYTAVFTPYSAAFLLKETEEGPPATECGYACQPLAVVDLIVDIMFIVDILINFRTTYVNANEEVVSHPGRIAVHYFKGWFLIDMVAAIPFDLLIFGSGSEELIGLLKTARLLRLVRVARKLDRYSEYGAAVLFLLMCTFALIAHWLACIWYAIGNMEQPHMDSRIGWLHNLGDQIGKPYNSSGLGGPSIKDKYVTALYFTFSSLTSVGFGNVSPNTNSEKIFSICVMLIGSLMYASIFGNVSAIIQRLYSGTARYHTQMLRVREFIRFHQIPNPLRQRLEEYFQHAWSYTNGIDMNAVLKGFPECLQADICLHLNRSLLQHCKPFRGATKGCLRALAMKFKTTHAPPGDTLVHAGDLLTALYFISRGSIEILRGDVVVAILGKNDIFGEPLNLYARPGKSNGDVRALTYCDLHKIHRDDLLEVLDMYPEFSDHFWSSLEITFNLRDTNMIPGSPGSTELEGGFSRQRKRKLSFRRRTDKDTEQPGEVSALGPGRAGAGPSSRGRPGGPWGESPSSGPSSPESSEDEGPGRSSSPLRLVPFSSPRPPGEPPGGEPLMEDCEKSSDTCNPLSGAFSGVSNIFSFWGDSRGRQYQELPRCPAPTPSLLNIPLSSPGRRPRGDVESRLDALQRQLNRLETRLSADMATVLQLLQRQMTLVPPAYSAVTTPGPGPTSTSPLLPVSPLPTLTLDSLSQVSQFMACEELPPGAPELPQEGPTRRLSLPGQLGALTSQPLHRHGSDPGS
Sequence of Mitogen-activated protein kinase 13 (O15264 whole entry): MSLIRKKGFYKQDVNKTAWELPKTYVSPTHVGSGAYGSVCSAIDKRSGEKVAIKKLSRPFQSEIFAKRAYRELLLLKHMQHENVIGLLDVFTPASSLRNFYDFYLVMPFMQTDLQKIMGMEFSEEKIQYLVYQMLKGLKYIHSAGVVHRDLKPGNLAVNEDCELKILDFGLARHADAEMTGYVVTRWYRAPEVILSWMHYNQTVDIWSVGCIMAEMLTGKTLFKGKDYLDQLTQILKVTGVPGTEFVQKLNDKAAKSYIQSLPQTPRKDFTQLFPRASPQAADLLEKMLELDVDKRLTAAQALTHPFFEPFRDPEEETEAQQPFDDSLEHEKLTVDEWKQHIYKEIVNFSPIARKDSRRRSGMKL

In the case of `CC(C)(C)c1ccc(-c2noc(-c3ccno3)n2)cc1`, the IC50 (in test [1]; in the test on HEK293) was > 67.5 µM (inactive) each time.
In the case of `Cc1nc2ncccn2c1-c1csc(NCc2ccco2)n1`, the CC50 in the test on Vero was > 40 µM (active).
As to `c1ccc(C2NCc3ccccc3-n3cccc32)cc1` (stereo not given), the AC50 in the test with Escherichia coli is > 150 µM (inactive).
For `CCOC(=O)C1(CCc2ccccc2)CCN(Cc2ccco2)CC1`, the EC50 in test [2] was > 92.5 µM (inactive); in [3] it was > 92.5 µM (inactive); in test [4], 1.19 µM (active); at Mu-type opioid receptor, > 92.5 µM (inactive).
As to `Cc1ccc(-c2cc(C(=O)N3CCc4ccccc4C3)no2)cc1`, the IC50 is 8.83 µM (active) at Phospholipase A2 and 13.3 µM (active) at Cysteine protease ATG4B.
Turning to `CC(=O)NC1C(=O)N(Cc2ccccc2)c2ccc(Br)cc21` (stereo not given), the IC50 on Hexokinase HKDC1 and on Hexokinase-1 was > 80 µM (inactive) in each case.
As to `O=C(CN1C(=O)CCC1=O)Nc1nc(-c2nc3ccccc3s2)cs1`, in [5], the EC50 was 0.0444 µM (active).
Still for that read-out and setting: to `CN(Cc1ccccc1F)c1nc(-c2cccnc2)nc2ccccc12` belongs 6.08 µM (active).
In the case of `Cc1nn(-c2ccccc2)c(C)c1NC(=O)COC(=O)c1ccc(Cl)c(S(N)(=O)=O)c1`, in the test with Escherichia coli, the AC50 is 28.1 µM (active).
With `CC1(N2CCC(c3ccccc3)CC2)CCN(C(=O)CNc2ncnc3cc(Cl)c(Cl)cc23)C1` (stereo not given), the Ki in test [6] is 3.16 µM (active).
For `CCOC(=O)c1nn(-c2ccc(C(C)C)cc2)c(=O)c(Oc2ccc(OC)cc2)c1Cl`, the IC50 in test [7] and in test [8] was > 20 µM (inactive) each time.
Regarding `O=C(C1CCCCN1C1c2ccccc2-c2ccccc21)N1CCN(c2ccc([N+](=O)[O-])cc2)CC1` (stereo not given), the IC50 in test [7] and in [8] was > 20 µM (inactive) in each case.
`Cc1[nH]n(-c2ccccc2)c(=O)c1N=Nc1nccs1`: the EC50 in [9] was 4.29 µM (active); in test [10], 5.42 µM (active). For the same compound, the CC50 in the test with Vero is > 40 µM (active).
As to `N#Cc1ncc2nc1OCCCCCOc1cc(OCCCO)c(Cl)cc1NC(=O)N2`, the Ki in test [11] is > 7.94 µM (inactive).
As for `CCOP(=S)(OCC)Oc1nc(Cl)c(Cl)cc1Cl` [CHLORPYRIFOS], the AC50 in [12] is 50.1 µM (inconclusive).

The term IC50 denotes the concentration at which inhibition is half-maximal. One may read the CC50 as the concentration at which the toxic effect on the cells reaches its halfway point. The AC50 is the midpoint of the concentration-response curve, whichever way the signal moves. In general, EC50 refers to the midpoint of the concentration-response curve. The term Ki denotes a dissociation constant, usually derived from enzyme kinetics or from competition with a known ligand.

The values above are taken from ChEMBL document CHEMBL1201862, “PubChem BioAssay data set” (2004).
